Source: patent US10981911B2, “Imidazopyrrolopyridine as inhibitors of the JAK family of kinases” (Janssen Pharmaceutica NV, priority 2016, dated 2021)

What was measured:
JAK2-JH1JH2 = JAK2-JH1JH2 (Homo sapiens (Human), UniProt O60674); assay: Enzymatic inhibition assay (RapidFire HTMS), JAK2; format: biochemical; conditions: 30 μM ATP, 40 μM substrate
In short: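 Quenched with 0.5% TFA plus internal-standard peptide; phosphorylated product quantified by RapidFire C4 SPE–ESI-MS, 11-point 1:3 or 1:4 dilutions in duplicate.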

MDCK-MDR1 cell line = assay: MDCK-MDR1 permeability assay; format: in vitro ADME; conditions: @ 5 μM, apical to basolateral, with P-gp inhibitor elacridar (2 μM)
Description: Permeability measurements were conducted according to the Cyprotex protocol using the MDCK-MDR1 cell line obtained from the NIH (Rockville, Md., USA). Cells between passage numbers 6-30 were seeded onto a Multiscreen Plate™ (Millipore) at a cell density of 3.4×10^5 cells/cm^2 and cultured for three days before permeability studies were conducted. The cells in this assay form a cohesive sheet of a single cell layer filing the surface area of the culture dish, also known as a confluent monolayer, and on day four the test compound was added to the apical side of the membrane and the transport of the compound across the monolayer was monitored over a time period of 60 min.
Test compounds were dissolved in DMSO at a concentration of 10 mM. The dosing solutions were prepared by diluting test compound with assay buffer (Hanks Balanced Salt Solution), pH 7.4, at a final concentration of 5 μM. For assessment of apical to basolateral (“A-B”) permeability, buffer was removed from the apical compartment and replaced with test compound dosing solution with or without the permeability glycoprotein (“PgP”, “P-gP”, “Pgp” or “P-gp”) inhibitor elacridar (2 μM). For assessment of basolateral to apical (“B-A”) permeability, buffer was removed from the companion plate and replaced with test compound dosing solution. Incubations were carried out in duplicate at 37° C. in an atmosphere of 5% CO2 with a relative humidity of 95%. Each assay included the reference markers propranolol (high permeability) and prazosin (PgP substrate). After incubation for 60 minutes, apical and basolateral samples were diluted and test compounds quantified by LC/MS/MS using an 8-point calibration in the range 0.0039 to 3 μM with appropriate dilution of the samples (receiver dilution factor=1; donor and C0 dilution factor=10). The permeability coefficient (Papp) for each compound was calculated from the following equation: Papp=(dQ/dt)/(C0×S), where dQ/dt is the rate of permeation of the drug across the cells, C0 is the donor compartment concentration at time zero, and S is the area of the cell monolayer.
The second and third columns in Table 7 show the values of Papp(A-B) for the apical-to-basolateral compound transport without (second column) and with a P-gp inhibitor (third column, noted as P^eapp(A-B)) that was elacridar. Papp(A-B) gives an indication of permeation extent across the cells in this assay, which is envisaged to model the transcellular transport across Pgp-expressing cells, such as Pgp-expressing gastrointestinal tract cells. P^eapp(A-B) values (Papp(A-B) in the presence of the P-gp inhibitor) given in column 3 are determined to confirm the role of P-gp in the compound efflux. […] Test compound efflux ratios are given in the fifth column of Table 7 as Papp(B-A)/Papp(A-B) by using the corresponding permeability coefficient values from the fourth and second columns in the same table.

Chain of JAK2-JH1JH2 (O60674 532-1132): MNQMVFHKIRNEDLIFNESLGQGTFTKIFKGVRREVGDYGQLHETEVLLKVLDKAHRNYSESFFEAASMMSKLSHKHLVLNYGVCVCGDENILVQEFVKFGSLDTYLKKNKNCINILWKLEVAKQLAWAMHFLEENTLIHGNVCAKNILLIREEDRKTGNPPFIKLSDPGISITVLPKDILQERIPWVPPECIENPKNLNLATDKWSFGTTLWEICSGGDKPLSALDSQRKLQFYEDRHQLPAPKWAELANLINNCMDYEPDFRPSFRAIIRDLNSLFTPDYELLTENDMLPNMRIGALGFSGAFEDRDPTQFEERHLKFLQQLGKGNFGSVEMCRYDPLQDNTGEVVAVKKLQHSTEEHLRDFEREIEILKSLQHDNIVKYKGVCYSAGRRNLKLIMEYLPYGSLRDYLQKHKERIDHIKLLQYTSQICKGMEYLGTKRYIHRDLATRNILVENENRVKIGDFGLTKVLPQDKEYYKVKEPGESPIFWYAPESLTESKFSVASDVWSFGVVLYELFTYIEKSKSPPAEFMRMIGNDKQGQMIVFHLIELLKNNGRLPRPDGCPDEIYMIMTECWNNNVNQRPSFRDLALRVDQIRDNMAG

Row | Compound | IC50 (JAK2-JH1JH2) [nM] | MDCK-MDR1 P^eapp(A-B) (MDCK-MDR1 cell line)
1 | N#CCC12CCC(NC(=O)Cc3nc4cnc5[nH]ccc5c4n3[C@H]3CC[C@H](CC#N)CC3)(CC1)C2 [Ex. 55, N-(4-(Cyanomethyl)bicyclo[2.2.1]heptan-1-yl)-2-(1-((1r,4r)-4-(cyanomethyl)cyclohexyl)-1,6-dihydroimidazo[4,5-d]pyrrolo[2,3-b]pyridin-2-yl)acetamide] | 2.9 | –
2 | CC(C)(C#N)CNC(=O)Cc1nc2cnc3[nH]ccc3c2n1[C@H]1CC[C@H](CC#N)CC1 [Ex. 22, N-(2-Cyano-2-methylpropyl)-2-(1-((1r,4r)-4-(cyanomethyl)cyclohexyl)-1,6-dihydroimidazo[4,5-d]pyrrolo[2,3-b]pyridin-2-yl)acetamide] | 5.4 | –
3 | N#CC[C@H]1CC[C@H](n2c(CC(=O)NCC3(O)CCC3)nc3cnc4[nH]ccc4c32)CC1 [Ex. 34, 2-(1-((1r,4r)-4-(Cyanomethyl)cyclohexyl)-1,6-dihydroimidazo[4,5-d]pyrrolo[2,3-b]pyridin-2-yl)-N-((1-hydroxycyclobutyl)methyl)acetamide] | 3.1 | –
4 | CC(C)(O)CNC(=O)Cc1nc2cnc3[nH]ccc3c2n1[C@H]1CC[C@H](CC#N)CC1 [Ex. 1, 2-(1-((1r,4r)-4-(Cyanomethyl)cyclohexyl)-1,6-dihydroimidazo[4,5-d]pyrrolo[2,3-b]pyridin-2-yl)-N-(2-hydroxy-2-methylpropyl)acetamide] | 8.2 | –
5 | N#CC[C@H]1CC[C@H](n2c(CC(=O)NCC3(O)CC3)nc3cnc4[nH]ccc4c32)CC1 [Ex. 85, 2-(1-((1r,4r)-4-(Cyanomethyl)cyclohexyl)-1,6-dihydroimidazo[4,5-d]pyrrolo[2,3-b]pyridin-2-yl)-N-((1-hydroxycyclopropyl)methyl)acetamide] | 6.2 | –
6 | N#CC[C@H]1CC[C@H](n2c(CC(=O)NC3CCOCC3)nc3cnc4[nH]ccc4c32)CC1 [Ex. 5, 2-(1-((1r,4r)-4-(Cyanomethyl)cyclohexyl)-1,6-dihydroimidazo[4,5-d]pyrrolo[2,3-b]pyridin-2-yl)-N-(tetrahydro-2H-pyran-4-yl)acetamide] | – | 0.5 10^−6 cm/sec
